Test results taken from patent publication US7223583B2, “Antithrombotic thrombin variants” (Emory University, priority 2001, dated 2007).
Residues, ends and D or L forms follow the SMILES beside them. *: point of attachment. pNA = O=[N+]([O-])c1ccc(N*)cc1

What was measured:
Format in all cases: biochemical
[1] = target: T1, human thrombin, wild-type (WT) (Homo sapiens, UniProt P00734); assay: Hydrolysis of chromogenic substrates (release of p-NA at 405 nm), Example 3; conditions: 5 mM Tris, 0.1% PEG, 200 mM NaCl, pH 8.0, 25° C.
T1 construct: the B chain of thrombin commences with I1 and extends to E259; made in house
Method: Citrated plasma was diluted 1:1 with isotonic saline, and the thrombin analogs were diluted with 0.1 M NaCl, 0.01 M CaCl2, 0.02 M Tris, pH 7.3 prior to testing. 100 μl of thrombin analog was then added to 200 μl of baboon plasma and the clotting time was determined using a fibrometer.
(§1) The chromogenic substrates FPR and LDPR were synthesized by solid phase, purified by HPLC and analyzed by mass spectrometry. Progress curves of the release of p-NA following the hydrolysis of chromogenic substrate were measured at 405 nm as a function of substrate concentration and analyzed to extract the values of kcat/Km and kcat, after proper correction for product inhibition. […] Biotechnol.

[2] = target: T2, human thrombin, variant W215A, SEQ ID NO: 1 (Homo sapiens, UniProt P00734, W590A); assay: as above; conditions: 5 mM Tris, 0.1% PEG, 200 mM NaCl, pH 8.0, 25° C.
T2 construct: The B chain commences with I1 and extends to E259; made in house; host or cells: baby hamster kidney cells
Method: Site-directed mutagenesis of human α-thrombin was carried out in a HPC4-pNUT expression vector as described in Arosio et al. Biochemistry 39: 8095-8101 (2000) and incorporated herein by reference in its entirety, using overlap extension PCR with two mutant oligonucleotides: upstream: 5-GGGCATCGTCTCAXXXGGTGAAGGCTG TG-3(SEQ ID NO: 7); downstream: 5-CACAGCCTTCACCXXXTGAGACGATGCCC-3 (SEQ ID NO: 8) and two flanking oligonucleotide primers, BgIII (upstream): 5-[…]-3 (SEQ ID NO: 9 and; EcoRI (downstream): 5-[…]-3 (SEQ ID NO: 10). For the generation of the double mutant variant W215A/E217A (WE) thrombin, the forward primer 5′-[…]-3′ (SEQ ID NO: 11) and the reverse primer 5′-[…]-3′ (SEQ ID NO: 12) were used. Expression of the variant thrombins was carried out in baby hamster kidney cells as described in Guinto et al. Proc. Natl. Acad. Sci. U.S.A. 96: 1852-1857 (1999) incorporated herein by reference in its entirety. The enzyme was activated with the prothrombinase complex for about 30 mins. at 37° C. and then purified to homogeneity by monoS FPLC using a linear gradient of 0.05 to 0.5 M NaCl in 5 mM MES (pH 6) at room temperature. Mutants were further checked for incomplete refolding or autolytic digestion by N-terminal amino acid sequencing. Electrospray mass spectrometry yielded molecular weights consistent with the mutations introduced and indicated identical glycosylation in wild-type and mutant constructs.
as §1, with “All assays were carried out under experimental conditions of 5 mM Tris, 0.1% PEG, 145 mM NaCl, pH 7.4 at 37° C., unless otherwise specified. The” for “The”, “Biotechnol. 15: 146-149 (1997) and incorporated herein by reference in its entirety.” for “Biotechnol.”

[3] = target: T1, human thrombin, wild-type (WT); assay: Hydrolysis of chromogenic substrate (progress curves of the release of p-nitroaniline at 405 nm), Example 4; conditions: 5 mM Tris, 0.1% PEG, 145 mM NaCl, pH 7.4, 37° C.
Text: WT, W215A and WE variant thrombins were expressed, purified, and characterized in detail as described by Cantwell & Di Cera. J. Biol. Chem. 275: 39827-39830 (2000), incorporated herein by reference in its entirety. WE was stored in aliquots frozen until used in the thrombosis or coagulation experiments. To confirm that injection of variant thrombin WE would be at least as safe as injection of WT in baboons, the procoagulant activities of the two thrombins were compared in baboon plasma prepared by pooling citrated plasma samples from five animals. Citrated plasma was diluted 1:1 with isotonic saline, and the thrombin analogs were diluted with 0.1 M NaCl, 0.01 M CaCl2, 0.02 M Tris, pH 7.3 prior to testing. 100 μl of thrombin analog was then added to 200 μl of baboon plasma and the clotting time was determined using a fibrometer. […]
(§2) All assays were carried out under experimental conditions of 5 mM Tris, 0.1% PEG, 145 mM NaCl, pH 7.4 at 37° C. […] The values of kcat/Km and kcat were obtained from the analysis of progress curves of the release of p-nitroaniline (measured at 405 nm) as a function of substrate concentration taking into account product inhibition, when present. […] The inhibition of thrombin by antithrombin III in the presence of heparin, and the activation of protein C in the presence or absence of rabbit thrombomodulin were carried out and analyzed as described in Dang et al. Nat. […]

[4] = target: T3, human thrombin, variant E217A (Homo sapiens, UniProt P00734, E592A); assay: as above; conditions: E217A; 5 mM Tris, 0.1% PEG, 145 mM NaCl, pH 7.4, 37° C.
T3 construct: the B chain of thrombin commences with I1 and extends to E259
Method: (§3) All assays were carried out under experimental conditions of 5 mM Tris, 0.1% PEG, 145 mM NaCl, pH 7.4 at 37° C. The chromogenic substrates H-D-Phe-Pro-Arg-p-nitroanilide specific for thrombin and H-D-Asp-Arg-Arg-p-nitroanilide specific for activated protein C were purchased from Midwest Bio-Tech (Carmel, Ind.). The values of kcat/Km and kcat were obtained from the analysis of progress curves of the release of p-nitroaniline (measured at 405 nm) as a function of substrate concentration taking into account product inhibition, when present. The interaction of thrombin with fibrinogen and fibrin was studied in terms of the release of fibrinopeptides A and B as described by Vindigni & Di Cera. Biochemistry 35: 4417-4426 (1996) incorporated herein by reference in its entirety. The interaction of thrombin with PAR-1 was studied from the kinetics of cleavage of a soluble fragment corresponding to the extracellular portion of the receptor, as detailed in Arosio et al. Biochemistry 39: 8095-8101 (2000) incorporated herein by reference in its entirety. The inhibition of thrombin by antithrombin III in the presence of heparin, and the activation of protein C in the presence or absence of rabbit thrombomodulin were carried out and analyzed as described in Dang et al. Nat. Biotechnol. 15: 146-149 (1997).

[5] = tested on: human thrombin, variant E217A; assay: as above; conditions: E217A thrombin mutant (Gibbs et al.)
Method: as §3

[6] = target: T4, human thrombin, variant W215A/E217A (WE), SEQ ID NO: 3 (Homo sapiens, UniProt P00734, E592A/W590A); assay: as above; conditions: W215A/E217A (WE); 5 mM Tris, 0.1% PEG, 145 mM NaCl, pH 7.4, 37° C.
T4 construct: The B chain commences with I1 and extends to E259; made in house; host or cells: baby hamster kidney cells
Method: (§4) Site-directed mutagenesis of human α-thrombin was carried out in a HPC4-pNUT expression vector as described in Arosio et al. Biochemistry 39: 8095-8101 (2000) and incorporated herein by reference in its entirety, using overlap extension PCR with two mutant oligonucleotides: upstream: 5-GGGCATCGTCTCAXXXGGTGAAGGCTG TG-3(SEQ ID NO: 7); downstream: 5-CACAGCCTTCACCXXXTGAGACGATGCCC-3 (SEQ ID NO: 8) and two flanking oligonucleotide primers, BgIII (upstream): 5-[…]-3 (SEQ ID NO: 9 and; EcoRI (downstream): 5-[…]-3 (SEQ ID NO: 10). For the generation of the double mutant variant W215A/E217A (WE) thrombin, the forward primer 5′-[…]-3′ (SEQ ID NO: 11) and the reverse primer 5′-[…]-3′ (SEQ ID NO: 12) were used. […]
as §2

[7] = tested on: human thrombin, variant W215A/E217A (WE), SEQ ID NO: 3; assay: as above; conditions: W215A/E217A (WE) thrombin double mutant
Method: as §4, §2

[8] = kcat could not be estimated due to the very high Km

Structure (SMILES) | kcat/Km (LDPR) [1, 8] | kcat/Km (LDPR) [2, 8] | kcat (FPR) [1] | kcat/Km (FPR) [1] | kcat (FPR) [2] | kcat/Km (FPR) [2] | kcat/Km (H-D-Phe-Pro-Arg-p-nitroanilide) [3] | kcat/Km (H-D-Phe-Pro-Arg-p-nitroanilide) [4] | drop of kcat/Km for the hydrolysis of H-D-Phe-Pro-Arg-p-nitroanilide [5] | kcat/Km (H-D-Phe-Pro-Arg-p-nitroanilide) [6] | cleavage of H-D-Phe-Pro-Arg-p-nitroanilide compromised [7]
CC(C)C[C@H](N)C(=O)N[C@@H](CC(=O)O)C(=O)N1CCC[C@H]1C(=O)N[C@@H](CCCN=C(N)N)C(=O)Nc1ccc([N+](=O)[O-])cc1 [LDPR, H-L-Leu-Asp-Pro-Arg-p-nitroanilide] (H-LDPR-pNA) | 4.7e+06 ± 900000 M⁻¹ s⁻¹ | 25000 ± 1000 M⁻¹ s⁻¹ | – | – | – | – | – | – | – | – | –
NC(N)=NCCC[C@H](NC(=O)[C@@H]1CCCN1C(=O)[C@H](N)Cc1ccccc1)C(=O)Nc1ccc([N+](=O)[O-])cc1 [FPR, H-D-Phe-Pro-Arg-p-nitroanilide] | – | – | 56 ± 3 s⁻¹ | 8.8e+07 ± 4e+06 M⁻¹ s⁻¹ | 43 ± 2 s⁻¹ | 910000 ± 10000 M⁻¹ s⁻¹ | 9.7e+07 ± 5e+06 M⁻¹ s⁻¹ | 3.8e+06 ± 300000 M⁻¹ s⁻¹ | over 25 fold | 2800 ± 100 M⁻¹ s⁻¹ | over 30,000 fold
